Reference: patent US20240002379A1, “ASYMMETRIC CONJUGATE COMPOUNDS” (Pheon Therapeutics Ltd., priority 2016, published 2024)
Entries after “also recorded” stand apart in the source; their conditions may differ. Like-named read-outs stand apart in the source and are kept apart here.

What was measured:
[1] = system: LIM1215 cell line (gastric); experiment: MTT cytotoxicity assay, LIM1215; assay type: cell-based; settings: MTT assay, 72 hour incubation, read-out: Cytotoxicity LIM1215 (72 hours)
Method: (§1) Tumor cell lines were maintained in RPMI1640 medium supplemented with 10% heat-inactivated fetal bovine serum, 2 mM L-glutamine and 1 mM sodium pyruvate. 1800 cells per well were seeded in a volume of 180 μl in a 96-well flat bottom polystyrene plate. The cells were allowed to adhere overnight at 37° C. in a CO2 incubator. Ligands were initially formulated in DMSO, and stocks stored at −80° C. They were then further formulated at lox concentration in RPMI1640 medium. 20 ul of diluted samples were added into each treatment well. On each plate, blank wells with no cells, and untreated wells containing cells, were included. Plates were then cultured at 37° C. in a CO2 incubator for 72 hrs. Cytotoxicity was evaluated using a tetrazolium salt-based assay, the MTT assay. After 72 hours, the supernatant was removed from each well and 200 μl of a sterile filtered 500 μg/ml MTT solution in water added to each well. The plates were then incubated at 37° C. in a CO2 incubator for 4 hrs. The supernatant was then removed and the formazan crystals formed solubilized by adding 150 μl of DMSO to each well. The plate was then read on a plate reader at 540 nm, and percentage cell survival calculated as follows: ((mean absorbance treated wells at concentration x−mean absorbance blank wells)[…](mean absorbance untreated wells at concentration x−mean absorbance blank wells))×100. Data were plotted as concentration in nM vs. % cell survival in Microsoft Excel, and IC50 values (concentration where cell survival is reduced by a half) were determined from the graph.

[2] = system: SW620 cell line (gastric); experiment: MTT cytotoxicity assay, SW620; assay type: cell-based; settings: MTT assay, 72 hour incubation, read-out: Cytotoxicity SW620 (72 hours)
Method: as §1

SW48 cell line (gastric) = experiment: MTT cytotoxicity assay, SW48; assay type: cell-based; settings: MTT assay, 72 hour incubation
Method: as §1

[3] = system: FaDu (head and neck cancer) cell line; experiment: MTT cytotoxicity assay, FaDu; assay type: cell-based; settings: Homo sapiens, read-out: Cytotoxicity FaDu (nM, 72 hour)
Method: as §1

PC3 (prostate) cell line = experiment: MTT cytotoxicity assay, PC3; assay type: cell-based; settings: read-out: Cytotoxicity PC3 (nM, 72 hour)
Method: as §1

[4] = system: three fluorescently labelled DNA sequences shown in FIG. 17; experiment: FRET DNA melting, the three DNA sequences shown in FIG. 17 together; assay type: binding; settings: for effect on melting temperature / DNA stabilisation: different concentrations, all three sequences, vs control DNA
Description: Further FRET DNA melting studies were undertaken on a number of molecules using three fluorescently labelled sequences. The sequences (FIG. 17) were designed to provide additional evidence that the series can form inter- and intrastrand cross-links. Inosines were inserted in place of traditional DNA bases in some cases to limit the number of binding sites available for the compounds to interact with. The short duplexes used in this FRET study are relatively unstable in the duplex form with a melting temperature below 30° C. so that, in the absence of ligand, a large part of the melting occurs below the starting temperature of the experiment. […] Increasing concentrations of 13 cause a greater amount of the melting transition to appear at the higher temperature (i.e. a greater number of the DNA molecules are cross-linked). A greater effect for 5′-AIIAGAITTTI′-3′ can be observed at lower concentrations of 13.
Oligonucleotides were obtained from ATDbio (Southampton, UK) in lyophilised form. They were labelled with a fluorophore molecule (F=fluorescein) at the 5′-end and a quencher molecule (Q=dabcyl) at the 3′-end of the complementary strand. Each oligonucleotide was dissolved in distilled H2O to form stock solutions of 100 PM. Working solutions of 5 μM were prepared by diluting the stock solution with distilled H2O.
The following buffers were used: 250 mM phosphate buffer pH 7.4 (consisting of sodium dihydrogen phosphate and sodium phosphate diluted in distilled H2O) and 5 M sodium chloride buffer. A11 buffers and distilled H2O were filtered through a […] filter prior to use.
For the FRET experiments a stock solutions were prepared by dissolving compound (such as compound 13) in DMSO to give a concentration of 10 mM. From this stock solution, working solutions of the desired concentration were prepared by diluting the stock solution with distilled H2O.
The reaction mixture was comprised of 4 μL of 250 mM phosphate buffer (final concentration of 50 mM), 4 μL flourophor and 4 μL quencher molecule of the appropriate oligonucleotide for a final concentration of 0.2 PM, 4 μL 5 M sodium chloride (final concentration of 1 M NaCl), and 4 μL of distilled H2O. This mixture was heated in an Eppendorf tube at 90° C. for 1 min and slowly cooled down to room temperature. This process was carried out to anneal the single strands to double-stranded DNA. Following this, 4 μL of the ligand was added in the desired concentration and the mixture incubated overnight either at room temperature or 4° C. A control sample of DNA only was prepared by mixing 4 μL 250 mM phosphate buffer (final concentration of 50 mM) with 4 μL fluorophore-labelled and 4 μL quencher-labelled oligonucleotides (of the appropriate sequence) to give a final concentration of 0.2 PM, 4 μL 5 M sodium chloride (final concentration of 1 M NaCl) and 4 μL distilled H2O. This mixture was analysed without prior annealing.
Fluorescence melting profiles were measured using a Roche LightCycler using a total reaction volume of 20 μL. Initially, the samples were denatured by heating to 95° C. at a rate of 1° C. min^−1. The samples were then maintained at 95° C. for 5 min before annealing by cooling to 25° C. at 1° C. min^−1. The samples were then held at 25° C. for a further 5 min and finally melted by heating to 95° C. at 1° C. min^−1. Annealing steps and melting steps were all recorded and changes in fluorescence were measured at 520 nm.
Tm values were obtained from the first derivates of the melting profiles using the Roche LightCycler software.

[5] = Homo sapiens, SW48, read-out: Cytotoxicity SW48 (72 hrs)

SMILES | IC50 ([1]; LIM1215) [nM] | IC50 ([2]; Homo sapiens, SW-620) [nM] | IC50 (SW48 cell line (gastric); [5]) [nM] | effect on melting temperature / DNA stabilisation [4] | other results
CC(C)(C)OC(=O)N1C[C@@H](CCl)c2c1cc(O)c1ccccc21 [Compound 10, tert-Butyl (S)-1-(chloromethyl)-5-hydroxy-1,2-dihydro-3H-benzo[e]indole-3-carboxylate] | 1270 | 2000 | 2920 | – | –
COc1cc2c(cc1OCCCCCC(=O)N1C[C@@H](CCl)c3c1cc(O)c1ccccc31)N=C[C@@H]1CCCCN1C2=O [Compound 24, (S)-3-((6-((S)-1-(Chloromethyl)-5-hydroxy-1,2-dihydro-3H-benzo[e]indol-3-yl)-6-oxohexyl)oxy)-2-methoxy-7,8,9,10-tetrahydrobenzo-[e]pyrido[1,2-a][1,4]diazepin-12(6aH)-one] | – | – | – | – | IC50 ([3]; MTT assay, 72 hour incubation): 1.83 nM; IC50 (PC3 (prostate) cell line; MTT assay, 72 hour incubation): 0.12 nM
COc1cc2c(cc1OCCCC(=O)N1C[C@@H](CCl)c3c1cc(O)c1ccccc31)N=C[C@@H]1Cc3ccccc3CN1C2=O [Compound 53, (S)-3-(4-((S)-1-(Chloromethyl)-5-hydroxy-1,2-dihydro-3H-benzo[e]indol-3-yl)-4-oxobutoxy)-2-methoxy-7,12-dihydrobenzo[5,6][1,4]-diazepino[1,2-b]isoquinolin-14(6aH)-one] | – | – | – | – | IC50 ([3]; MTT assay, 72 hour incubation): 0.65 nM; IC50 (PC3 (prostate) cell line; MTT assay, 72 hour incubation): 0.02 nM
COc1cc2c(cc1OCCCC(=O)N1C[C@@H](CCl)c3c1cc(OC(=O)N1CCN(C)CC1)c1ccccc31)N=C[C@@H]1CCCCN1C2=O [Compound 55, (S)-1-(Chloromethyl)-3-(4-(((S)-2-methoxy-12-oxo-6a,7,8,9,10, 12-hexahydrobenzo[e]pyrido[1,2-a][1,4]diazepin-3-yl)oxy)butanoyl)-2,3-dihydro-1H-benzo[e]indol-5-yl 4-methylpiperazine-1-carboxylate] | – | – | – | – | IC50 ([3]; 72 h): 1.5 nM; IC50 (PC3 (prostate) cell line; 72 h): 0.02 nM
CC(C)(C)OC(=O)N1CC2CC23C1=CC(=O)c1ccccc13 [Compound 83, tert-Butyl (8bR,9aS)-4-oxo-9,9a-dihydro-1H-benzo[e]cyclopropa[c]indole-2(4H)-carboxylate] | – | – | – | do not increase | IC50 [1]: 2890 nM; degree of DNA stabilisation ([4]; middle sequence and bottom sequence in FIG. 17 (both AT-rich)): very small degree of stabilisation; IC50 [2]: 3510 nM; IC50 (SW48 cell line (gastric); read-out: Cytotoxicity SW48 (72 hrs)): 4390 nM
COc1cc2c(cc1OCc1c(C(=O)N3C[C@@H](CCl)c4c3cc(O)c3ccccc43)sc3ccccc13)N=C[C@@H]1CCCCN1C2=O [Compound 91, (S)-3-((2-((S)-1-(Chloromethyl)-5-hydroxy-2,3-dihydro-1H-benzo[e]indole-3-carbonyl)benzo[b]thiophen-3-yl)methoxy)-2-methoxy-7,8,9,10-tetrahydrobenzo[e]pyrido[1,2-a][1,4]diazepin-12(6aH)-one] | 2210 | 2610 | 2320 | – | –
COc1cc2c(cc1OCc1cccc(CC(=O)N3C[C@@H](CCl)c4c3cc(O)c3ccccc43)c1)N=C[C@@H]1Cc3ccccc3CN1C2=O [Compound 108, (S)-3-((3-(2-((S)-1-(Chloromethyl)-5-hydroxy-1,2-dihydro-3H-benzo[e]indol-3-yl)-2-oxoethyl)benzyl)oxy)-2-methoxy-7,12-dihydrobenzo[5,6][1,4]diazepino[1,2-b]isoquinolin-14(6aH)-one] | 0.78 | 0.045 | – | – | IC50 (SW48 cell line (gastric); Homo sapiens, SW48, read-out: IC50 value in SW48): 0.004 nM
COc1cc2c(cc1OCc1cccc(CC(=O)N3C[C@@H](CCl)c4c3cc(O)c3ccccc43)c1)NC(=O)[C@@H]1CCCCN1C2=O [Compound 139, (S)-3-((3-(2-((S)-1-(Chloromethyl)-5-hydroxy-1,2-dihydro-3H-benzo[e]indol-3-yl)-2-oxoethyl)benzyl)oxy)-2-methoxy-7,8,9,10-tetrahydrobenzo[e]pyrido[1,2-a][1,4]diazepine-6,12(5H,6aH)-dione] | 12 | 13.5 | 0.95 | – | –
COc1cc2c(cc1OCc1cccc(CC(=O)N3C[C@@H](C)c4c3cc(O)c3ccccc43)c1)N=C[C@@H]1CCCCN1C2=O [Compound 145, (S)-3-((3-(2-((S)-5-Hydroxy-1-methyl-1,2-dihydro-3H-benzo[e]indol-3-yl)-2-oxoethyl)benzyl)oxy)-2-methoxy-7,8,9,10-tetrahydrobenzo[e]pyrido[1,2-a][1,4]diazepin-12(6aH)-one] | 137 | 350 | 32.1 | – | –
COc1cc2c(cc1OCCCC(=O)N1C[C@@H](CCl)c3c1cc(O)c1ccccc31)NC(=O)[C@@H]1CCCCN1C2=O [Compound 149, (S)-3-(4-((S)-1-(Chloromethyl)-5-hydroxy-1,2-dihydro-3H-benzo[e]indol-3-yl)-4-oxobutoxy)-2-methoxy-7,8,9,10-tetrahydrobenzo[e]-pyrido[1,2-a][1,4]diazepine-6,12(5H,6aH)-dione] | – | – | – | limited increase | –
COc1cc2c(cc1OCCCC(=O)N1C[C@@H](CCl)c3c1cc(OC(=O)N1CCN(C)CC1)c1ccccc31)NC(=O)[C@@H]1CCCCN1C2=O [Compound 150, (S)-1-(Chloromethyl)-3-(4-(((S)-2-methoxy-6,12-dioxo-5,6,6a,7,8,9,10,12-octahydrobenzo[e]pyrido[1,2-a][1,4]diazepin-3-yl)oxy)butanoyl)-2,3-dihydro-1H-benzo[e]indol-5-yl 4-methylpiperazine-1-carboxylate] | – | – | – | negligible DNA stabilisation; also recorded: do not increase | –
COc1cc2c(cc1OCCCC(=O)N1C[C@@H](C)c3c1cc(O)c1ccccc31)N=C[C@@H]1CCCCN1C2=O [Compound 152, (S)-3-(4-((S)—S-Hydroxy-1-methyl-1,2-dihydro-3H-benzo[e]indol-3-yl)-4-oxobutoxy)-2-methoxy-7,8,9,10-tetrahydrobenzo[e]pyrido[1,2-a][1,4]diazepin-12(6aH)-one] | – | – | – | limited increase | ΔTm compared to the active G-A cross-linker 42 ([4]; three sequences of FIG. 17): large decrease in the ΔTm value
